Measurements: patent US8895769B2, “Silicon-containing carboxylic acid derivative” (Kemphys Ltd., priority 2011, dated 2014)

What was measured:
rat Chung model = assay: Analgesic action test using Chung model; type: in vivo; settings: single oral administration, 30 minutes after, physical stimulation, N=6
Method: A rat Chung model was used. 4-Amino-3-(trimethylsilyl)butanoic acid (Compound A), 4-amino-3-(trimethylsilylmethyl)butanoic acid (Compound B), 4-amino-3-[(1-methyl-1-silacyclopentan-1-yl)methyl]butanoic acid (Compound C), 4-(1-methyl-1-silacyclohexan-1-yl)-3-cyanobutanoic acid (Compound D), and pregabalin (positive control, Compound E) were each orally administered once to the rats, and analgesic action was examined 30 minutes thereafter on the basis of pain threshold values obtained with a physical stimulation (total number of groups: 11, N=6). As a result, the pain threshold values (g) of the agent-administered groups and the control group were as follows. • Control (0.5% MC): 5.3±0.4 • Compound A: 7.8±0.5 (60 mg/kg), 6.2±0.4 (20 mg/kg) • Compound B: 7.9±0.4 (60 mg/kg), 5.4±0.2 (20 mg/kg) • Compound C: 8.8±0.3 (60 mg/kg), 5.7±0.6 (20 mg/kg) • Compound D: 7.3±0.5 (60 mg/kg), 4.8±0.2 (20 mg/kg) • Compound E: 8.3±0.2 (30 mg/kg), 6.3±0.3 (10 mg/kg)

gabapentin receptor = target: T1, gabapentin receptor (Rattus norvegicus, UniProt P54290); assay: Binding to gabapentin receptor (inhibition of [3H]gabapentin binding); settings: compound 1 μM; 0.02 μM [3H] gabapentin; receptor from brains of Wister rats
T1 construct: a gabapentin receptor was prepared from the brains of Wister rats; from tissue; host or cells: Wistar rat brain, prepared by the method of Suman-Chauhan et al. 1993
Method: According to the method of Suman-Chauhan et al. (Eur. J. Pharmacol, 244 (3), pp. 293-301, 1993), a gabapentin receptor was prepared from the brains of Wister rats. Binding of the following compounds (1 μM) to the gabapentin receptor was investigated on the basis of inhibition of binding of gabapentin in the presence of 0.02 μM [^3H] gabapentin. As a result, the following inhibition ratios were observed. • 4-Amino-3-(trimethylsilyl)butanoic acid: 35% • 4-Amino-3-(t-butyldimethylsilyl)butanoic acid: 13% • 4-Amino-3-(trimethylsilylmethyl)butanoic acid: 28% • 4-Amino-3-(dimethyl-n-octylsilyl)butanoic acid: 32%

T1 sequence (P54290 25-944 limits assumed): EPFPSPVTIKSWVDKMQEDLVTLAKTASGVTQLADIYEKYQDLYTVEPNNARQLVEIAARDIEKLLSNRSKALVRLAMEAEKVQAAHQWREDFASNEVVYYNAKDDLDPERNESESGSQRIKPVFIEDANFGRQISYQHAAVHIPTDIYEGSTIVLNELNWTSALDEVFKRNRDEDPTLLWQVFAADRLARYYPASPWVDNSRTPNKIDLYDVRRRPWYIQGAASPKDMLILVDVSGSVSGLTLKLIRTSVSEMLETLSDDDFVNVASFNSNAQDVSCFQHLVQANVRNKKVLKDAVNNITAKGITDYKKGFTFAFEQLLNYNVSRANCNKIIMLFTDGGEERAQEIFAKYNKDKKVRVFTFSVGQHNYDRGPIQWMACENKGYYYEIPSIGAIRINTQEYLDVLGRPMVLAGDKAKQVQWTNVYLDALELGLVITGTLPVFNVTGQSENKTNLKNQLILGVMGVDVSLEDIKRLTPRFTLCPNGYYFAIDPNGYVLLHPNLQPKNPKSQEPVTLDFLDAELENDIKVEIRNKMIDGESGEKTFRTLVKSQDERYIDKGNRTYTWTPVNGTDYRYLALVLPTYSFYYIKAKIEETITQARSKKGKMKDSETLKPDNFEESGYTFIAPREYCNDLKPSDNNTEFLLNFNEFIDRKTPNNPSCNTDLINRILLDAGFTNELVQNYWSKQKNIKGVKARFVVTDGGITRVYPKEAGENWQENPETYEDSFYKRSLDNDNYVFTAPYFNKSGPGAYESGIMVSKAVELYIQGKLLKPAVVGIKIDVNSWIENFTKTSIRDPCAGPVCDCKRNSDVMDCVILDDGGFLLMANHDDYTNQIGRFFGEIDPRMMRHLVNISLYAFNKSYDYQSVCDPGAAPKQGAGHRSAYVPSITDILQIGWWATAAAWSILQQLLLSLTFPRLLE
T1 sequence (P54290 945-1091 limits assumed): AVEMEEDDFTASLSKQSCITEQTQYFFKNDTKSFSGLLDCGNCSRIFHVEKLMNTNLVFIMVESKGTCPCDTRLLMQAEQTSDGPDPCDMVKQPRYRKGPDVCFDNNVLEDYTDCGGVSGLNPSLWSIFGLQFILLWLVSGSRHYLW

| Structure (SMILES) | melting point [°C] | pain threshold value (rat Chung model; 20 mg/kg) [g] | pain threshold value (rat Chung model; 60 mg/kg) [g] | inhibition ratio (inhibition of binding of gabapentin) (gabapentin receptor) [%] | further results |
| --- | --- | --- | --- | --- | --- |
| C[Si]1(CC(CN)CC(=O)O)CCCC1 (stereo not drawn) [Compound C, 4-amino-3-[(1-methyl-1-silacyclopentan-1-yl)methyl]butanoic acid] | 133 to 135 | 5.7 ± 0.6 | 8.8 ± 0.3 | – | – |
| CCCCCCCC[Si](C)(C)C(CN)CC(=O)O (stereo not drawn) [4-amino-3-(dimethyl-n-octylsilyl)butanoic acid] | – | – | – | 32 | – |
| CC(C)C[C@H](CN)CC(=O)O [Compound E, (S)-3-(aminomethyl)-5-methylhexanoic acid, reference compound] | – | – | – | – | pain threshold value (rat Chung model; 10 mg/kg): 6.3 ± 0.3 g; pain threshold value (rat Chung model; 30 mg/kg): 8.3 ± 0.2 g |
| C[Si]1(CC(C#N)CC(=O)O)CCCCC1 (stereo not drawn) [Compound D, 4-(1-methyl-1-silacyclohexan-1-yl)-3-cyanobutanoic acid] | – | 4.8 ± 0.2 | 7.3 ± 0.5 | – | – |
| C[Si](C)(C)CC(CN)CC(=O)O (stereo not drawn) [Compound B, 4-amino-3-(trimethylsilylmethyl)butanoic acid] | – | 5.4 ± 0.2 | 7.9 ± 0.4 | 28 | – |
| C[Si]1(C(CN)CC(=O)O)CCCCC1 (stereo not drawn) | 160 to 161.5 | – | – | – | – |
| C[Si]1(CC(CN)CC(=O)O)CCCCC1 (stereo not drawn) | 140.5 to 143 | – | – | – | – |
| C[Si](C)(C)C(CN)CC(=O)O (stereo not drawn) [Compound A, 4-amino-3-(trimethylsilyl)butanoic acid] | 199 to 201 | 6.2 ± 0.4 | 7.8 ± 0.5 | 35 | – |
| CC(C)(C)[Si](C)(C)C(CN)CC(=O)O (stereo not drawn) [4-amino-3-(tert-butyldimethylsilyl)butanoic acid] | – | – | – | 13 | – |
